According to patent US9121022B2, “Method for controlling herbicide-resistant plants” (priority 2010, dated 2015):
Counter-ions that a name gives are not always drawn. {Alexa488} = Alexa Fluor 488 (Invitrogen) label

Key:
[1] = system: glyphosate-resistant Palmer amaranth containing 16 copies of EPSPS; assay: glyphosate counter-ions with EPSPS polynucleotides, percent control and plant height (Example 35, Table 29); format: in vivo; settings: for Palmer control (%): Table 29: glyphosate salt 1682 g acid equivalent per hectare, with or without EPSPS polynucleotides IDT [1]-[4] in 0.5% SILWET L-77, 2% ammonium sulfate, 16-copy EPSPS Palmer amaranth, 3 replicates
Text: FIG. 38 depicts the effect of varying glyphosate counter-ions on herbicidal activity (presented as percent of weed control/kill, and as plant height) of topically applied polynucleotides (RNA) on glyphosate-resistant Palmer amaranth plants. A mixture of EPSPS polynucleotides (IDT [1] (SEQ ID NO:83-84), IDT [2] (SEQ ID NO:85-86), IDT [3] (SEQ ID NO:87-88), and IDT [4] (SEQ ID NO:89-90)) in 0.5% SILWET L-77® brand surfactant, 2% ammonium sulfate in 10 millimolar sodium phosphate buffer, pH 6.8 with 0.2% Roundup® WeatherMax® carrier (MON56151 tallowamine surfactant blend of tallowamine (16-18C) and cocoamine (12-14C) in the ratio of 55:45) and 1682 g acid equivalent per hectare of one of the glyphosate salts; K+ glyphosate, isopropylammonium+ glyphosate or monoethanolammonium+ glyphosate at 215 liters/acre by Milli spray on 3 replicates of 4-6 inch glyphosate-resistant Palmer amaranth containing 16 copies of EPSPS. Plant height was scored at 21 days after glyphosate treatment.

[2] = system: glyphosate-resistant Palmer amaranth plants; assay: additives (salts, EDTA, glycerin) to polynucleotide spray solutions, percent control and plant height (Example 35, Tables 26-28); format: in vivo; settings: additive in spray solution
Text: The efficacy of different substances (including salts, a chelating agent, a humectant, and polyamines) as polynucleotide transferring agents or as enhancers of a known polynucleotide transferring agent was investigated.

[3] = system: detached leaves of glyphosate-resistant Palmer amaranth; assay: petiole uptake of fluorescently labelled ssDNA oligonucleotide into detached leaves (Example 9); design: species or system Palmer amaranth (Amaranthus palmeri)
Description: Petioles of detached leaves of glyphosate-resistant Palmer amaranth were placed in 200 mM sucrose solution with fluorescently labelled ssDNA oligonucleotides (SEQ ID NO:15). Leaf images were taken by Bio-Rad PharosFX imager equipped with a 488 nm laser from 4 h up to 48 h after uptake through petiole. Leaves incubated with 200 mM sucrose alone served as control.

[4] = system: Nicotiana benthamiana phytoene desaturase; assay: single PDS ssDNA 22-mer on tobacco: bleaching of organs, seed set, germination (Example 12); format: in vivo
Description: Four-week old tobacco (Nicotiana benthamiana) plants were used in all treatments. Two fully expanded leaves (one cotyledon, one true leaf) were conditioned by dipping into freshly made surfactant solution (0.1% SILWET L-77® brand surfactant in double-distilled water) for a few seconds and allowed to dry for 15-30 minutes. Twenty microliters of a single-stranded DNA (ssDNA) 22-mer oligonucleotide with the sequence […] (SEQ ID NO:39), corresponding to the nucleotides at positions 1099-1120 of Nicotiana benthamiana phytoene desaturase (SEQ ID NO:2) was applied as a 25 micromolar solution in 0.01% SILWET L-77® brand surfactant in 5 millimolar sodium phosphate buffer, pH 6.8 to the top surface of each conditioned leaf for a total of 40 microliters (1 nanomole oligonucleotide) per plant. Control plants were treated with the SILWET® brand surfactant solution without the DNA oligonucleotide.
Flowers of both control and ssDNA-treated plants were allowed to set seed. Seeds were collected from mature fruits, weighed, and allowed to germinate. Seed weights were identical (about 11 mg per 100 seeds) and seed morphology appeared similar between the ssDNA-treated and the control plants.
In a separate assay using a similar procedure, tobacco plants were conditioned by dipping in 0.1% SILWET L-77® brand surfactant in double-distilled water, allowed to dry for 15-30 minutes, and treated with the PDS ssDNA 22-mer (SEQ ID NO:39) applied as a 25 micromolar solution in 0.01% SILWET L-77® brand surfactant in 5 millimolar sodium phosphate buffer, pH 6.8 to the top surface of each conditioned leaf for a total of 40 microliters (1 nanomole oligonucleotide) per plant. Other plants were not conditioned with a surfactant treatment, but were treated only with 1 nanomole of the PDS ssDNA 22-mer (SEQ ID NO:39) applied either by infiltration with a needleless syringe (shown in FIG. 18B) or by hand application of drops to the leaf surface (not shown in FIG. 18B), and either as a 25 micromolar solution in 0.01% SILWET L-77® brand surfactant in 5 millimolar sodium phosphate buffer, pH 6.8 or as a 25 micromolar solution in 5 millimolar sodium phosphate buffer, pH 6.8 (without surfactant). Negative control plants were treated with the SILWET® brand surfactant buffer solution without the DNA oligonucleotide. Results are depicted in FIG. 18B.

[5] = system: Glyphosate-resistant Palmer amaranth plants (33, 36, or 57 copies EPSPS); assay: spermine, spermidine or ammonium sulfate with dsRNA then glyphosate (Example 35, FIG. 39); format: in vivo; settings: for performance compared with 2% ammonium sulfate: 1 or 10 millimolar
Description: The effect of the polyamine cations spermine (N,N′-bis(3-aminopropyl)butane-1,4-diamine) and spermidine (N-(3-aminopropyl)butane-1,4-diamine) on herbicidal activity of topically applied polynucleotides (RNA) on glyphosate-resistant Palmer amaranth plants was investigated. […] The dsRNA polynucleotide solutions were prepared with either 1 or 10 millimolar spermine or spermidine or 2% ammonium sulfate, in a 10 millimolar sodium phosphate (pH 6.8) buffer. Control solutions (without polynucleotides) were prepared with either 1 or 10 millimolar spermine or spermidine or 2% ammonium sulfate, in a 10 millimolar sodium phosphate (pH 6.8) buffer. Glyphosate-resistant Palmer amaranth plants (33, 36, or 57 copies EPSPS) were pre-sprayed with 1% SILWET L-77® brand surfactant. The dsRNA polynucleotide solutions (11.6 grams/acre) or buffer solutions were applied as drops on four lower fully expanded leaves of glyphosate resistant Palmer amaranth by pipetting. Two days following polynucleotide treatment the plants were sprayed with glyphosate (3360 g acid equivalent per hectare of Roundup® WeatherMAX® brand herbicide).

[6] = system: volunteer glyphosate-resistant corn plants; assay: synthetic Pol III gene dsDNA on volunteer glyphosate-resistant corn in soybean (Example 8); format: in vivo; settings: glyphosate 7 days after dsDNA; 15 days later
Text: This example illustrates the utility of employing a synthetic Pol III gene in compositions and methods of this invention. With reference to SEQ ID NO:3 and FIG. 2, a synthetic Pol III gene is created using elements from an Arabidopsis thaliana U6 snRNA gene to provide a dsDNA molecule with two copies of RGCCCR elements (bold and underlined), an upstream sequence element (USE) having the sequence “[…]” (SEQ ID NO:4, bold and underlined), a TATA box (bold and underlined), a “G” nucleotide (bold and underlined), anti-sense DNA (italics) corresponding to a bacterial DNA encoding an EPSPS protein (see U.S. Pat. RE39,247) that imparts resistance to glyphosate herbicide when expressed in transgenic corn plants, an “[…]” element (SEQ ID NO:5, bold and underlined) embedded in the anti-sense DNA, an “[…]” element (SEQ ID NO:6, bold and underlined) followed by sense DNA (lower case) and a “TTTTTT” terminator element (SEQ ID NO:7, bold and underlined). A solution of 0.1 wt % SILWET L-77® brand organosilicone surfactant and a solution of multiple copies of the dsDNA molecule are sprayed onto leaves of volunteer glyphosate-resistant corn plants growing in a field of glyphosate-resistant soybean plants, followed 7 days later by treatment with Roundup WeatherMAX® brand glyphosate herbicide. […]

Molecule: O=C(O)CNCP(=O)(O)O [isopropylammonium salt of glyphosate, glyphosate, reference compound]
- herbicidal activity by glyphosate salt ([1]; 1682 g ae/ha glyphosate salt with IDT [1]-[4], 21 days after glyphosate treatment): better herbicidal activity compared to the potassium salt

Molecule: CC(C)N.O=C(O)CNCP(=O)(O)O [IPA + glyphosate]
- Palmer control (%) [1]: 9%

Molecule: O=C(O)CN(CCN(CC(=O)O)CC(=O)O)CC(=O)O [ethylenediaminetetraacetic acid (EDTA), ethylenediaminetetraacetic acid]
- effect of additive on efficacy of the polynucleotides and herbicidal activity of glyphosate [2]: act similarly to 2% ammonium sulfate

Molecule: ACCCTCCACGACTGCCCTTT (DNA, 5' {Alexa488}, backbone not given here; listed as Amaranthus palmeri) [Anti-sense_PO1_488, ssDNA anti-sense to Amaranthus palmeri EPSPS]
- time of release from vascular tissue into cells ([3]; after treatment): 8 h
- vascular uptake into leaf ([3]; petiole uptake in 200 mM sucrose, imaged 4 h to 48 h): slightly time-dependent vascular uptake

Molecule: Cl.N [ammonium chloride]
- effect of additive on efficacy of the polynucleotides and herbicidal activity of glyphosate [2]: act similarly to ammonium sulfate

Molecule: GGCAGTACAATTAAAGGAGATG (DNA, backbone not given here; listed as Nicotiana benthamiana) [SEQ ID NO:39]
- bleaching without surfactant conditioning (FIG. 18B) ([4]; 1 nanomole by infiltration or hand application of drops, no conditioning): displayed bleaching of apical leaves, stems, and flowers
- bleaching of apical leaves, stems, and flowers (FIG. 18A) ([4]; 1 nanomole per plant after surfactant conditioning): all displayed bleaching
- germination rate ([4]; seeds from ssDNA-treated plants, control 95 out of 100): 4 out of 100
- seed weight ([4]; seeds from ssDNA-treated plants, identical to control): about 11 mg per 100 seeds

Molecule: O=C(O)CNCP(=O)([O-])O.[K+] [K + glyphosate]
- Palmer control (%) [1]: 23%

Molecule: NCCCNCCCCNCCCN [spermine, N,N′-bis(3-aminopropyl)butane-1,4-diamine]
- performance compared with 2% ammonium sulfate [5]: neither spermine nor spermidine at 1 or 10 millimolar performed as well as 2% ammonium sulfate

Molecule: OCC(O)CO [Glycerin, glycerin]
- effect of additive on efficacy of the polynucleotides and herbicidal activity of glyphosate [2]: enhance the efficacy of the polynucleotides

Molecule: CCCC[P+](CCCC)(CCCC)CCCC.[Br-] [tetrabutylphosphonium bromide]
- effect of additive on efficacy of the polynucleotides and herbicidal activity of glyphosate [2]: act similarly to ammonium sulfate

Molecule: NCCO.O=C(O)CNCP(=O)(O)O [MEA + glyphosate]
- Palmer control (%) [1]: 9%

Molecule: NCCCCNCCCN [spermidine, N-(3-aminopropyl)butane-1,4-diamine]
- effect on 33-copy plants of polyamine alone ([5]; 10 mM, without polynucleotides): stunted
- performance compared with 2% ammonium sulfate [5]: neither spermine nor spermidine at 1 or 10 millimolar performed as well as 2% ammonium sulfate

B1: synthetic Pol III gene: dsDNA from Arabidopsis U6 snRNA gene elements with anti-sense and sense DNA of bacterial EPSPS (nucleic acid)
DNA: GGCCCATAGGCCTTTTTCTAAAATAGGCCCATTTAAGCTATTAACAATCTTCAAAAGTACCACATCGCTTAGGTAAAGAAAGCAGCTGAGTTTATATATGGTTAGAGACGAAGTAGTGATTGCGACGAGCGACGTCTCGCCCTCATCGCAATCCACGCCATTGAGCTTGAGGCCATTGGCGACGGCCGAGAGGCGGTCGCTTAAGATTAGCATGTCCTTGACGCGGAGTTCTTCCAGACCGTTCATCACGGTCGCCCCTTCCGCGAAGGCGGCGGCGACAGCGAGAATCGGATATTCGTCGATCATCGAAGGCGCGCGGTCTTCCGGCACCGTGACGCATAAACACGGTGCCGGAAGACCGCGCGCCTTCGATGATCGACGAATATCCGATTCTCGCTGTCGCCGCCGCCTTCGCGGAAGGGGCGACCGTGATGAACGGTCTGGAAGAACTCCGCGTCAAGGAAAGCGACCGCCTCTCGGCCGTCGCCAATGGCCTCAAGCTCAATGGCGTGGATTGCGATGAGGGCGAGACGTCGCTCGTCGTTTTTTTTGGCAAAAA
- condition of soybean crop plants [6]: thriving
- condition of volunteer corn plants [6]: dead
